Efflux ratio data for 1 molecule are collected here from PubChem BioAssay AID602446 (National Center for Advancing Translational Sciences (NCATS), 2012).

In this series the test system is Caco-2 permeability efflux ratio. Kind of series: High Content Assay for Compounds that inhibit the Assembly of the Perinucleolar Compartment: Efflux Ratio. From the text: The perinucleolar compartment (PNC) is a non-membrane-bound nuclear subdomain that is associated with but structurally distinct from the nucleolus. The PNC is a heritable trait, in which the number of PNCs per cell in daughter cells often mimics that of their mother cells. The PNC is heterogeneous in shape, is stable through interphase, disassembles during mitosis, and reassembles in early G1. The PNC is concentrated with newly synthesized RNA polymerase III (pol III) RNAs (MRP RNA, RNAse P H1 RNA, hY RNAs[hY1, 2, 5], Alu RNA, and SRP [7SL] RNA) and RNA binding proteins (nucleolin, PTB, CUG-BP, KSRP, Raver1, Raver2, and Rod).
In collaboration between Sui Huang from Northwestern University and the NCGC, a high content assay was developed and screened. The hits were then tested in follow-up assays. High-content tumor cell migration assays in 3-dimensional extracellular matrices are powerful tools for modeling and understanding the biology of this critical step in the process of metastasis. However, most of the available methods are not amenable to the throughput required by studies of comparative pharmacology or small scale screening. […]
8. […] The T0, LY and T90, LY plates are read by FlexStation 3 at excitation of 485 nm and emission of 535 nm to determine LY permeability. […]

Turning to `N=c1c2c(-c3ccccc3)c(-c3ccccc3)n(Cc3ccccc3)c2ncn1C1CCC(O)CC1` (stereo unspecified), the efflux ratio is 11.
